Test results: the supplement of paper PMC4862054

Key:
Settings in all cases: incubation time: 72 h
Hs578T [1] = experiment: normalised response (% of control), CellTox Green; higher = less cell death (100 = DMSO, 0 = benzethonium chloride kill control)
Method in brief: (§1)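 CellTox Green fluorescence (485/520 nm) and, after 10 min at room temperature, CellTiter-Glo luminescence were read from breast cancer cell lines incubated 72 h in 384-well plates. Cells were seeded as 20 µl suspension onto compound at 5 concentrations in 10-fold steps over a 10,000-fold range chosen per compound. Each plate was normalised to 0.1 % DMSO (100) and a positive kill control (0). Values are normalised signals, one per concentration.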

HCC1143 [2] = experiment: as above
Method in brief: as §1

MCF-10A [3] = experiment: as above
Method in brief: as §1

HDQ-P1 [4] = experiment: as above
Method in brief: as §1

CAL-85-1 [5] = experiment: as above
Method in brief: as §1

DU-4475 [6] = experiment: as above
Method in brief: as §1

CAL-120 [7] = experiment: as above
Method in brief: as §1

CAL-148 [8] = experiment: as above
Method in brief: as §1

CAL-51 [9] = experiment: as above
Method in brief: as §1

MFM-223 [10] = experiment: as above
Method in brief: as §1

MDA-MB-231 [11] = experiment: as above
Method in brief: as §1

BT-474 [12] = experiment: as above
Method in brief: as §1

MDA-MB-436 [13] = experiment: as above
Method in brief: as §1

HCC1937 [14] = experiment: as above
Method in brief: as §1

MDA-MB-468 [15] = experiment: as above
Method in brief: as §1

HCC1599 [16] = experiment: as above
Method in brief: as §1

MDA-MB-453 [17] = experiment: as above
Method in brief: as §1

BT-549 [18] = experiment: as above
Method in brief: as §1

Hs578T [19] = experiment: normalised response (% of control), CellTiter-Glo; higher = more viable cells (100 = DMSO, 0 = benzethonium chloride kill control)
Procedure: (§2)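 DSRT, 72 h incubation, CellTox Green / CellTiter-Glo readout. Signal is normalised to DMSO and benzethonium chloride controls. Value is the normalised response at the highest dose.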

SK-BR-3 = experiment: as above
Procedure: as §2

HCC1143 [20] = experiment: as above
Procedure: as §2

MCF-10A [21] = experiment: as above
Procedure: as §2

HDQ-P1 [22] = experiment: as above
Procedure: as §2

CAL-85-1 [23] = experiment: as above
Procedure: as §2

DU-4475 [24] = experiment: as above
Procedure: as §2

CAL-120 [25] = experiment: as above
Procedure: as §2

CAL-148 [26] = experiment: as above
Procedure: as §2

CAL-51 [27] = experiment: as above
Procedure: as §2

MFM-223 [28] = experiment: as above
Procedure: as §2

MDA-MB-231 [29] = experiment: as above
Procedure: as §2

BT-474 [30] = experiment: as above
Procedure: as §2

MDA-MB-436 [31] = experiment: as above
Procedure: as §2

HCC1937 [32] = experiment: as above
Procedure: as §2

MDA-MB-468 [33] = experiment: as above
Procedure: as §2

HCC1599 [34] = experiment: as above
Procedure: as §2

MDA-MB-453 [35] = experiment: as above
Procedure: as §2

BT-549 [36] = experiment: as above
Procedure: as §2

Row | SMILES | normalised response (Hs578T [1]) [%] | normalised response (HCC1143 [2]) [%] | normalised response (MCF-10A [3]) [%] | normalised response (HDQ-P1 [4]) [%] | normalised response (CAL-85-1 [5]) [%] | normalised response (DU-4475 [6]) [%] | normalised response (CAL-120 [7]) [%] | normalised response (CAL-148 [8]) [%] | normalised response (CAL-51 [9]) [%] | normalised response (MFM-223 [10]) [%] | normalised response (MDA-MB-231 [11]) [%] | normalised response (BT-474 [12]) [%] | normalised response (MDA-MB-436 [13]) [%] | normalised response (HCC1937 [14]) [%] | normalised response (MDA-MB-468 [15]) [%] | normalised response (HCC1599 [16]) [%] | normalised response (MDA-MB-453 [17]) [%] | normalised response (BT-549 [18]) [%] | normalised response (Hs578T [19]) [%] | normalised response (SK-BR-3) [%] | normalised response (HCC1143 [20]) [%] | normalised response (MCF-10A [21]) [%] | normalised response (HDQ-P1 [22]) [%] | normalised response (CAL-85-1 [23]) [%] | normalised response (DU-4475 [24]) [%] | normalised response (CAL-120 [25]) [%] | normalised response (CAL-148 [26]) [%] | normalised response (CAL-51 [27]) [%] | normalised response (MFM-223 [28]) [%] | normalised response (MDA-MB-231 [29]) [%] | normalised response (BT-474 [30]) [%] | normalised response (MDA-MB-436 [31]) [%] | normalised response (HCC1937 [32]) [%] | normalised response (MDA-MB-468 [33]) [%] | normalised response (HCC1599 [34]) [%] | normalised response (MDA-MB-453 [35]) [%] | normalised response (BT-549 [36]) [%]
1 | CCCCCCCCCCCCCCCCCCOP(=O)([O-])OC1CC[N+](C)(C)CC1 [Perifosine] (2500 nM) | 128 | 67 | 117 | 109 | 97.4 | 95.7 | 107 | 96.9 | 96.4 | 90.3 | 106 | 95.6 | 78 | 108 | 133 | 99.3 | 83.9 | 56.7 | 96.9 | 60.4 | 99.1 | 63.7 | 84.7 | 102 | 95.9 | 104 | 79.9 | 80.7 | 92.6 | 104 | 104 | 87.9 | 52.7 | 97.5 | 86.3 | 98.6 | 111
2 | NC(=O)Nc1cc(-c2cccc(F)c2)sc1C(=O)N[C@H]1CCCNC1 [AZD7762] (1000 nM) | 40.7 | 103 | 90.8 | 90.3 | -20.6 | 99.9 | 91.8 | 87.1 | 14.1 | 95.8 | 48.5 | 91.9 | 84.9 | 65.8 | 75.8 | 98 | 87 | 94.3 | 22.1 | 12 | 23.7 | 31.1 | 28 | 15.2 | 89.3 | 55.7 | 106 | 45.3 | 64.2 | 32 | 43 | 28.8 | 26.4 | 31.7 | 10.2 | 40.8 | 21.2
3 | CC(C)Cn1cnc2c(N)nc3ccccc3c21 [Imiquimod] (2500 nM) | 130 | 104 | 88.2 | – | 83.7 | 99.3 | 96.6 | 100 | 106 | – | 96.5 | 101 | 102 | 106 | – | 101 | 93.9 | 72.1 | 105 | 106 | 94.5 | 95 | 103 | 104 | 103 | 95.8 | 106 | 92.8 | 103 | 98.2 | 96 | 106 | 99.6 | 109 | 94.9 | 105 | 98
4 | CS(=O)(=O)c1ccc(C2=C(c3ccccc3)C(=O)OC2)cc1 [Rofecoxib] (10000 nM) | 128 | 114 | 102 | 112 | 84.6 | 101 | 105 | 98.8 | 98.7 | 68.2 | 108 | – | 77.7 | – | – | 97.2 | 66.6 | 102 | 110 | 106 | 105 | 109 | 99.8 | 100 | 100 | 102 | 119 | 71.8 | 102 | 100 | 94.5 | 111 | 106 | 113 | 100 | 98.6 | 103
